Experimental data: article PMC8894198, “Biosynthetic Microcin J25 Exerts Strong Antibacterial, Anti-Inflammatory Activities, Low Cytotoxicity Without Increasing Drug-Resistance to Bacteria Target” (Frontiers in Immunology, 2022)
Where a SMILES comes first, the peptide text is derived from it. Bridges are numbered along the chain shown (N, C = ends).

Tested on: RAW 264.7 cells
Test: LPS-induced inflammation in macrophages
Type: cell-based, mouse
Procedure: The mouse macrophage cell line RAW 264.7 was obtained in our lab and stored in liquid nitrogen. Cells were cultured in DMEM supplemented with 1% antibiotics (100 U/mL penicillin and 100 µg/mL streptomycin) with 20% FBS at 37°C and 5% CO2. Cells were transferred and inoculated in 12-well plates (1 × 10^4 cells/well) and cultured for 24 h.
RAW 264.7 cells (approximately 2 × 10^4 cells/well) were cultured with 1 µg/mL E. coli LPS for 3 h at 37°C in the absence (control) or presence of 1 μg/mL MccJ25 at 5% CO2. The cells and cell culture supernatants were then collected. Culture supernatant mixed with Griess reagent (1:1) and incubated for 15 min at room temperature. A microplate reader was used to measure […] (NO) at 540 nm. The changes in induced NO levels were clarified based on the comparison between the values of the treated and control groups. Each experiment was repeated three times.
The concentrations of tumor necrosis factor-α (TNF-α), interleukin-6 (IL-6), IL-4, interferon (IFN)-γ, and nitric oxide (NO) in serum were measured. In addition, TNF-α and NO levels were also measured in the supernatant of RAW264.7 cells. ELISA was performed using a commercial ELISA kit (eBioscience, San Diego, USA). LPS levels in plasma were analyzed using the QCL-1000 kit (Xiamen, China) based on the manufacturer’s standards. On the day of sacrifice, eyes were extracted with ethylenediaminetetraacetic acid (EDTA), and blood was collected into clean test tubes. Peripheral hemograms and white blood cells (WBCs) were analyzed using a Coulter LH755 hematology analyzer. The levels of serum D-lactate were measured using ELISA kit (Jiancheng, Nanjing, China) according to the manufacturer’s protocols.
The extent and mRNA expression levels of TNF-α, IL-6, IL-10, IL-1β, IFN-γ, and TLR4, and NF-κB in each body part of the jejunum, ileum, colon, and spleen and in RAW264.7 cells were clarified by RT–PCR as previously described ([31]). Primers for TNF-α, IL-6, IL-10, IL-1β, IFN-γ, TLR4, and NF-κB are described in Table S1 . […] Combined with gel electrophoresis and a NanoDrop 2000 spectrophotometer (Thermo Fisher Scientific, Wilmington, DE), the quality and quantity of total RNA were determined. […]
Frozen tissue samples and fresh cells were homogenized in RIPA lysis buffer containing protease inhibitors (Applygen, Beijing, China). Protein levels were determined using a BCA protein assay kit (Thermo Fisher Scientific, Rockford, IL). […] Chemofluorescence was detected using the ImageQuant LAS 4000 mini system (GE Healthcare Biosciences AB, Inc., Sweden) with Western Blot Luminance Reagent (Applygen, Beijing, China), and the membranes were cleaned with an ImageQuant TL (GE Healthcare Life Science) gel imaging system for quantification.

SMILES: CC[C@H](C)[C@H](NC(=O)CNC(=O)[C@@H](NC(=O)[C@H](Cc1ccccc1)NC(=O)[C@H](Cc1ccc(O)cc1)NC(=O)[C@@H]1CCC(=O)NCC(=O)NCC(=O)N[C@@H](C)C(=O)NCC(=O)N[C@@H](Cc2c[nH]cn2)C(=O)N[C@@H](C(C)C)C(=O)N2CCC[C@H]2C(=O)N1)C(C)C)C(=O)NCC(=O)N[C@H](C(=O)N1CCC[C@H]1C(=O)N[C@H](C(=O)N[C@@H](CO)C(=O)N[C@@H](Cc1ccccc1)C(=O)N[C@@H](Cc1ccc(O)cc1)C(=O)NCC(=O)O)[C@@H](C)CC)[C@@H](C)O [MccJ25, microcin J25] (GGAGHVPEYFVGIGTPISFYG-OH; lactam N-8 (inferred); C-terminus assumed)
- LPS-stimulated expression of TNF-α and TLR-4 (RT-PCR) (LPS 1 µg/mL, MccJ25 1 µg/mL): this stimulatory effect was inhibited
- LPS-induced TNF-α and NO secretion (LPS 1 µg/mL, MccJ25 1 µg/mL, 3 h): this increase in secretion was alleviated
- MyD88, TLR4, TNF-α and IL-6 protein expression (western blot, after LPS challenge): sharply decreased
- p-NF-κB and MyD88 protein expression (western blot, after LPS challenge for 3 h): significantly decreased
